This is an account of results in US10704024B2, “Method for producing mesenchymal cells with promoted c-MPL receptor expression on cell surface” (AdipoSeeds, Inc., priority 2015, dated 2020).

For experiment [1], the system named is cell population of preadipocytes (TPO+). Nature of the experiment: Differentiation induction of preadipocytes into megakaryocytes/platelets in MKLI medium; CD41 positive cells by flow cytometry. In kind it is cell-based, human. The protocol:
In order to check whether “cell population of preadipocytes (TPO+)” obtained in Example 1 can be actually used for efficient production of megakaryocytes/platelets (megakaryocyte and/or platelet), differentiation of preadipocytes into megakaryocyte/platelets was induced in accordance with the method described in Patent Document 1.
A culture dish was coated with collagen and then a culture medium was added to the dish. As the culture medium, MKLI medium (megakaryocyte lineage induction medium) known as a medium which can induce differentiation of hematopoietic stem cells into megakaryocytes/platelets, was used. […]
The “cell population of preadipocytes (TPO+)” obtained in Example 1 was cultured in MKLI medium as mentioned above at 37° C. and in the conditions of a CO2 concentration of 5% for 7 days. After culture, the cell population was separately taken and the ratio (%) of CD41 (specific marker of megakaryocytes or platelets) positive cells in the cell population was determined. […]
In contrast, the ratio of CD41 positive cells in the “cell population of preadipocytes (TPO−)” obtained in Example 1 was determined by flow cytometry. […]
In general terms: A flow cytometer gives signals particle by particle.

The subject of experiment [2] is Human primary culture preadipocytes (HPAd). Nature of the experiment: Culture of preadipocytes in basic medium with TPO; c-MPL receptor positive cells by flow cytometry and immunostaining. In kind it is cell-based. On the procedure:
In order to check whether expression of a c-MPL receptor on a cell surface of a mesenchymal cell is promoted or not, the following culture experiment was carried out by culturing mesenchymal cells in a mesenchymal cell culturing basic medium comprising a c-MPL receptor active substance. Note that, in the culture experiment, preadipocytes were used as the mesenchymal cells.
Human primary culture preadipocytes (Human Preadipocytes: HPAd) manufactured by CELL APPLICATIONS were prepared. A culture dish was coated with collagen and then a culture medium was added to the dish. As the culture medium, DMEM medium (Dulbecco's Modified Eagle's Medium, manufactured by Life Technology Co.), to which a 10% fetal bovine serum (manufactured by Sigma), a 1% non-essential amino acid(s) (manufactured by Life Technology Co.), a 100 U/mL penicillin-streptomycin solution (manufactured by Life Technology Co.) and 50 ng/mL recombinant human TPO (manufactured by R&D Systems) were added, was used. The preadipocytes were cultured in the culture medium at 37° C. for 3 days. […] The preadipocytes (hereinafter referred to as “the cell population of preadipocytes (TPO+)”) were labeled with a fluorescence-labeled anti c-MPL antibody (manufactured by BD Bioscience), and fluorescence was measured by flow cytometry. When the ratio of c-MPL receptor positive cells was determined in this manner, the ratio was 3.68±0.39%. Note that, the cell population of preadipocytes (TPO+) was immuno-stained with a “fluorescence-labeled anti c-MPL antibody” and “DAPI (4′,6-diamidino-2-phenylindole)”. In the right panel, cells emitting fluorescence derived from the fluorescence-labeled anti c-MPL antibody are observed around the circular fluorescence emitted from nuclei stained with DAPI.
In contrast, the preadipocytes (hereinafter referred to as “cell population of preadipocytes (TPO−)”) were cultured in the same method except that recombinant human TPO was not added to a culture medium. When the ratio of the c-MPL receptor positive cells was determined by flow cytometry, the ratio was 0.67±0.12%. […]

Experiment [3] deals with CMK cells. The conditions noted are these: luciferase gene ligated downstream of the promoter; cited from earlier work.
For experiment [4], the system named is CMK cells. The conditions noted are these: cited from earlier work.

thrombopoietin [TPO]: the “number of megakaryocytes/platelets produced relative to preadipocytes cultured in medium not comprising recombinant TPO” value in experiment [1] (TPO+ vs TPO− preadipocytes) was “about 1.7 times”. Further, the “ratio of CD41 positive cells in the cell population” value in experiment [1] (preadipocytes pre-cultured with TPO, then MKLI medium 37° C., 5% CO2, 7 days, FITC-labeled anti CD41 antibody, flow cytometry) came out at 28.5±2.1%. Further, in experiment [2] (50 ng/mL recombinant human TPO, 37° C., 3 days, fluorescence-labeled anti c-MPL antibody, flow cytometry), the “ratio of c-MPL receptor positive cells” value came out at 3.68±0.39%. Also, the “increase of the ratio of c-MPL receptor positive cells relative to the case where TPO is not added” value in experiment [2] (TPO added to culture medium vs not added) is on record as “about 5.5 time”. For the same substance, the “c-MPL receptor positive cells by immunostaining (FIG. 1, right panel)” value in experiment [2] (TPO added, 3 days, fluorescence-labeled anti c-MPL antibody and DAPI) is “a large number of the cells, i.e., c-MPL receptor positive cells are present”. Besides, the “activity of the promotor of a c-MPL receptor gene” value in the experiment on CMK cells [3] is on record as “induced”. Besides, the “expression of a c-MPL receptor on the surface of CMK cells” value in the experiment with CMK cells [4] was “reduces expression”.
